From patent publication US5108916A, “Process for stereoselectively hydrolyzing, transesterifying or esterifying with immobilized isozyme of lipase from Candida rugosa” (priority 1989, dated 1992)
Values joined by “and” are separate entries in the source; they are usually repeats but may differ in a detail not shown here. Identical values can stand only once. Like-named read-outs stand apart in the source and are kept apart here.

Legend:
[1] = Conversion of ketoprofen esters in organic solvent/oleic acid media; type: biochemical
Experimental: To optimize the organic solvent used in the presence of oleic acid a variety of organic solvents were used, along with a variety of ketoprofen esters. In this experiment, 50 mg of ketoprofen esters were weighed into flasks, along with 1 ml of oleic acid and 9 ml of an organic solvent. The flasks were capped and incubated at 35° C., 250 rpm, for 10-26 hours before stopping the reaction by first adding 4 ml CHCl3 to solubilize the substrates and products, then filtering through a 0.2 um Gelman Nylaflo filter. Samples were then diluted in methanol and analyzed by HPLC as in Example 18. The experiment was also performed using 200 ul of oleic acid and 10ml buffer, which was acidified, extracted with CHCl3 and analyzed by HPLC as above.
One ml of oleic acid was added, as was 9 ml of buffer (100 mM (NH4)H2 PO4, pH 5.5) or organic solvent. Flasks were placed into a 35° C. incubator and shaken at 250 rpm for 13 hours. Reaction was stopped by adding 5 ml CHCl3 to solubilize the organic material and filtering the solutions using 0.2 um Gelman Nylaflo membranes to remove the enzyme. Samples were analyzed on an ODS-3 RAC column using CH3 OH:10 mM (NH4)H2PO4 (60:40) as eluant, flow rate 4 ml/min, and detection at 254 nm. %ee was determined by the resolution of diastereomeric amides on the above HPLC system, as per Example 18.

[2] = test system: CSC-2; assay: Effect of additives and solvents on hydrolysis of ketoprofen monoglyceride by CSC-2; type: biochemical, Candida rugosa
Experimental: Hydrolysis of ketoprofen-monoglyceride (50mg) was carried out in various DMF-100mM (NH4)H2 PO4 buffer (pH 5.5) mixtures. In each flask a solution of ketoprofen monoglyceride (50mg) in DMF (200ul) was added. DMF was added followed by 100mM (NH4)H2 PO4 buffer. […] After 22 hours, 2%, 5%, and 10% DMF samples were acidified, extracted with CHCl3 (2×10ml) and analyzed. The other samples were analyzed directly as in Example 18. The acid produced decreases with increasing amount of DMF.
Small amounts of DMF were added to the reaction mixture to increase the solubility of KPG. In all cases 100mM ammonium phosphate buffer (pH 5.5) was used and 2% (v/v) detergents were added and the total volume was 10ml.
The buffer reaction (entry #2 in the table) contained enzyme in buffer (2 ml) and the buffer only (entry #1 in the table) reaction contained no enzyme.
The presence of a surfactant like Tween increases the solubility o lipophilic compounds in water. […] Tween 80 was added to make 1% and 2% solution (v/v). Bovine serum albumin (BSA) (10mg) was added to each of two flasks. A solution of 50mg of ketoprofen monoglyceride in 200ul DMF was added to each. After 20 hours at 250 rpm and 35° C. the reaction mixtures were acidified, extracted and analyzed by the usual HPLC procedure as in Example 18.
Various surfactants were used at 2% of the reaction volume to determine their effect on the enzymatic reaction involving the conversion of ketoprofen monoglyceride (KPG) to ketoprofen (KP). […] Flasks were covered with parafilm and incubated in a 35° C. water bath at 250 rpm, typically overnight. Reactions were stopped by acidification, extracted with CHCl3 (2×10 ml). The %acid and %ee were determined by the method of Example 18. It is to be noted that Hydrophile-Lipophile Balance (HLB) values have no apparent bearing on the ability of the surfactant to enhance the conversion of KPG to KP.
75 mg of KPG (in the absence of DMF) was individually weighed into 50 ml Erlenmeyer flasks. […] 9 ml of 100 mM (NH4)H2 PO4, pH 5.5 buffer was added, and the flasks were placed into a 35° C., 250 rpm water bath incubator for 20 hours. The reactions were acidified, extracted with CHCl3 and examined by HPLC as in Example 18. The %ee was determined as per Example 18.
Various amounts of oleic acid or its esters were added, and the reactions stopped at the times indicated, acidified, extracted with CHCl3 and analyzed as in Example 18.
An experiment was performed as in Example 41, but using 100, 200 and 500 ul of olive oil to determine if it would enhance the rate of conversion of KPG to KP. […] After 20 hours, all reactions were acidified, extracted with CHCl3 and analyzed by HPLC as in Example 18. The results are given below:
50 mg of KPG was weighed into Erlenmeyer flasks. […] Flasks were incubated at 35° C., 250 rpm for 23 hours. The reactions were stopped by acidification, extracted with CHCl3, and analyzed by HPLC as in Example 18. The additive is listed along with its percentage composition of glycerides of oleic acid.
To determine the problems associated with having oleic acid or oleate. esters in the reaction media, the following experiment was performed. […] Flasks were placed in a 35° C. incubator at 250 rpm, and the reactions were sampled by taking 200 ul aliquots at various time points. These aliquots were analyzed by HPLC (ODS-3 RAC column, CH3 OH: 10 mM (NH4)H2 PO4 (60:40) eluant, 4 ml/min, 254 nm detection) to determine the course of reaction. When approximately 40% acid was produced, the reactions were stopped by placing the flasks in the -70° C. freezer. Two extraction procedures were utilized to determine the best method of isolating S-Ketoprofen free of oleic acid. The first (listed as Extraction Procedure I in the following table) involved first making the solution basic (pH 10) with NaOH, then extracting with hexane, then CHCl3.

[3] = test system: Lipase MY; assay: Two phase Lipase MY hydrolysis of HPPA-Me in organic solvent/water mixtures; type: biochemical, Candida rugosa; conditions: 43 hr
Experimental: A. 75% organic solvent/25% aqueous buffer--Fifty milligrams of R,S-HPPA-Me was combined in 10 ml Scintillation vial with 7.5 ml of organic solvent, 2.5 ml of 50 mM phosphate buffer pH 6.0, and 5 mg Lipase MY. The reactions were placed on shaker and shaken for a period of 0-43 hours with samples being taken at various times.
B. 25% organic solvent/75% aqueous buffer--Fifty milligrams of R,S-HPPA-Me was combined, in 10 ml Scintillation vial with 2.5 ml of organic solvent, 7.5 ml 50mM phosphate buffer (pH 6.8), and 5 mg Lipase MY. The reactions were shaken for a period of 0-143 hours with samples being taken at various time points.
The data in Table 2 represents the % conversion and % R-HPPA produced using the indicated organic solvents in a two-phase system wherein 75% […] of the total vehicle (solvent) was water and the balance (25%) was organic solvents.

[4] = KPG 50 mg, 100 mg CSC-2 on silica (279-SD-1), 9 ml solvent (or buffer)/1 ml oleic acid, 13 hours
[5] = solvent/buffer 1:1 two phase, 26 hours
[6] = solvent/buffer 1:1 two phase, 26 hours, buffer = 100
[7] = Buffer 10 ml, OA 200 ul, enzyme not named in Example 55
[8] = Hexane 9 ml, OA 1 ml, 10-26 hours
[9] = Hexane 9 ml, OA 1 ml, * stopped at 10 Hr
[10] = Isooctane 9 ml, OA 1 ml, * stopped at 10 Hr

Which results are given for CC(Cl)(Cl)Cl [1,1,1-Trichloroethane]?
% Acid ([1]; KPEG 50 mg, as E212): 0%; % ee S-acid ([1]; KPEG, as E212): 0%; % Acid [1, 4]: 1%; % ee S-acid ([1]; KPG, as E212): 0%; EE of S-acid [2, 5]: 75%; Relative Rate [2, 6]: 25

Which “% R” value ([3]; solvent 25%) does the source give for ClCC(Cl)Cl [1,1,2 trichloroethane] here?
The value was 79%.

And the “Conversion (ester/acid)” value ([3]; solvent 25%)?
Its value is 29%.

What about the “Relative Rate” value ([2]; solvent/buffer 1:1 two phase, 16 hour reactions) of the same molecule?
The value was 0.

Which “% Acid” value ([1]; KPEG 50 mg, as E212) does the source give for c1ccc2c(c1)CCCC2 [1,2,3,4-Tetrahydronapthalene] here?
Its value is 1%.

And the “% ee S-acid” value ([1]; KPEG, as E212)?
Its value is 1%.

What about the “% Acid” value [1, 4] of the same molecule?
The value was 2%.

What about the “% ee S-acid” value ([1]; KPG, as E212) of the same molecule?
Its value is 68%.

And the “EE of S-acid” value [2, 5]?
The value was 85%.

What about the “Relative Rate” value [2, 6] of the same molecule?
The value was 136.

With BrCCBr [1,2-dibromoethane] as the molecule, how does the “% R” value ([3]; solvent 25%) read?
Its value is 73%.

And the “Conversion (ester/acid)” value ([3]; solvent 25%)?
Its value is 33%.

And the “% R” value ([3]; solvent 75%)?
Its value is 57%.

What about the “Conversion (ester/acid)” value ([3]; solvent 75%) of the same molecule?
Its value is 23%.

What does the source list for CC(C)O [2-propanol]?
% R ([3]; solvent 25%): 0%; Conversion (ester/acid) ([3]; solvent 25%): 0%; % R ([3]; solvent 75%): 0%; Conversion (ester/acid) ([3]; solvent 75%): 0%

Which results are given for C1=CCCCC1 [Cyclohexene]?
% Acid ([1]; KPEG 50 mg, as E212): 3%; % ee S-acid ([1]; KPEG, as E212): 52%; % Acid [1, 4]: 12%; % ee S-acid ([1]; KPG, as E212): 94%; EE of S-acid [2, 5]: 89%; Relative Rate [2, 6]: 146

Which results are given for C1=CCCCCCC1 [Cyclooctene]?
% Acid ([1]; KPEG 50 mg, as E212): 16%; % ee S-acid ([1]; KPEG, as E212): 92%; % Acid [1, 4]: 38%; % ee S-acid ([1]; KPG, as E212): 98%; EE of S-acid [2, 5]: 95%; Relative Rate [2, 6]: 387

Which results are given for CC(C(=O)OCCOCCO)c1cccc(C(=O)c2ccccc2)c1 (centres unmarked) [Diethylene glycol ester, Diethylene Glycol Ester of Ketoprofen]?
% ee ([1]; Buffer 10 ml, OA 200 ul): 30%; % Acid [1, 7]: 32%; % Acid [1, 8]: 56%; % ee [1, 9]: 13%; % Acid ([1]; Isooctane 9 ml, OA 1 ml): 60%; % ee [1, 10]: 17%

With CC(C(=O)OCCO)c1cccc(C(=O)c2ccccc2)c1 (centres unmarked) [Ethylene Glycol Ester, ketoprofen ethylene glycol] as the molecule, how does the “% ee” value ([1]; Buffer 10 ml, OA 200 ul) read?
The value was 98%.

And the “% Acid” value [1, 7]?
Its value is 21%.

And the “% Acid” value ([1]; CHCl3 9 ml, OA 1 ml)?
Its value is 0%.

What about the “% Acid” value [1, 8] of the same molecule?
Its value is 29%.

What about the “% ee” value [1, 9] of the same molecule?
Its value is 95%.

And the “% Acid” value ([1]; Isooctane 9 ml, OA 1 ml)?
Its value is 47%.

What about the “% ee” value [1, 10] of the same molecule?
The value was 98%.

And the “% Acid” value ([1]; Toluene 9 ml, OA 1 ml)?
The value was 0%.

Which results are given for CCCCCC [Hexane]?
% Acid [1]: 12% and 16%; % ee S-acid [1]: 94% and 87%; EE of S-acid [2]: 93%; Relative Rate ([2]; pH 5.5, 1560 min): 80

For CC(C)CC(C)(C)C [Isooctane], which “% Acid” value ([1]; KPEG 50 mg, as E212) is on record?
Its value is 48%.

And the “% ee S-acid” value ([1]; KPEG, as E212)?
The value was 97%.

What about the “% Acid” value [1, 4] of the same molecule?
Its value is 39%.

And the “% ee S-acid” value ([1]; KPG, as E212)?
The value was 98%.

And the “EE of S-acid” value [2, 5]?
Its value is 96%.

What about the “Relative Rate” value [2, 6] of the same molecule?
The value was 214.
